Test results as given in patent publication US6809065B2, “Herbicide containing substituted pyrazole derivative as active ingredient” (SDS Biotech K.K., priority 2001, dated 2004).

How the values were obtained:
Chenopodium album [1] = assay: Upland field foliage treatment (Test Example 1); assay type: in vivo; details: foliage treatment 14th day after sowing, wettable powder, 1 kg active ingredient per hectare, evaluated 21st day after application
Excerpt: (§1) In the above evaluation criteria, the term “herbicidal effect” means evaluation to the objective weeds, and a higher index of the evaluation criteria means higher herbicidal effect on the objective weeds. On the other hand, a lower index of the evaluation criteria for the crops means higher safety to the crops. A plastic pot of 130 cm^2 was filled with upland soil. Then, seeds of weeds, namely, Setaria viridis, Digitaria adscendens, Chenopodium album and Stellaria media, and seeds of crops, namely, soybean (Glycine max) and wheat (Triticum aestivum), were sowed and covered with soil of about 1 cm thick. On the 14th day after the sowing, a wettable powder composition was prepared in accordance with Formulation Example 1, diluted with water in such an amount that the amount of the active ingredient became 1 kg per hectare, and then uniformly applied to the plant leaf surfaces. On the 21st day after the application, observation and evaluation were carried out according to the aforesaid criteria.

Stellaria media [2] = assay: Upland field foliage treatment (Test Example 1); assay type: in vivo; details: foliage treatment 14th day after sowing, wettable powder, 1 kg active ingredient per hectare, evaluated 21st day after application
Excerpt: as §1

Digitaria adscendens [3] = assay: Upland field foliage treatment (Test Example 1); assay type: in vivo; details: foliage treatment 14th day after sowing, wettable powder, 1 kg active ingredient per hectare, evaluated 21st day after application
Excerpt: as §1

Setaria viridis [4] = assay: Upland field foliage treatment (Test Example 1); assay type: in vivo; details: foliage treatment 14th day after sowing, wettable powder, 1 kg active ingredient per hectare, evaluated 21st day after application
Excerpt: as §1

[5] = test system: rice (Oryza sative, variety: Koshihikari); assay: Paddy field treatment (Test Example 3), crop; assay type: in vivo, Oryza sativa; details: transplanted rice two-leaf period, water surface treatment 10th day after transplantation, 1 kg active ingredient per hectare, evaluated 21st day, lower index = higher safety
Experimental: (§2) In the above evaluation criteria, the term “herbicidal effect” means evaluation to the objective weeds, and a higher index of the evaluation criteria means higher herbicidal effect on the objective weeds. On the other hand, a lower index of the evaluation criteria for the crops means higher safety to the crops. A plastic pot of 130 cm^2 was filled with paddy soil, and soil puddling was carried out to adjust the submerged depth to 4 cm. Then, seeds of Echinochloa crusgalli, Monochoria vaginalis, Ammannia multiflora and Scirpus juncoides were sowed, and rice (Oryza […], variety: Koshihikari) of two-leaf period was transplanted by 2 rice plants of 1 stub per pot at a depth of 3 cm. On the 10th day after the transplantation, a wettable powder composition was prepared in accordance with Formulation Example 1, diluted with water in such an amount that the amount of the active ingredient became 1 kg per hectare, and then dropped to diffuse on the water surface. On the 21st day after the dropping, observation and evaluation were carried out according to the aforesaid criteria.

[6] = test system: wheat (Triticum aestivum); assay: Upland soil treatment (Test Example 2), crop; assay type: in vivo; details: soil surface treatment next day after sowing, 1 kg active ingredient per hectare, evaluated 21st day, lower index = higher safety
Excerpt: (§3) In the above evaluation criteria, the term “herbicidal effect” means evaluation to the objective weeds, and a higher index of the evaluation criteria means higher herbicidal effect on the objective weeds. On the other hand, a lower index of the evaluation criteria for the crops means higher safety to the crops. A plastic pot of 130 cm^2 was filled with upland soil. Then, seeds of weeds, namely, Setaria viridis, Digitaria adscendens, Chenopodium album and Stellaria media, and seeds of crops, namely, soybean (Glycine max) and wheat (Triticum aestivum), were sowed and covered with soil of about 1 cm thick. On the next day after the sowing, a wettable powder composition was prepared in accordance with Formulation Example 1, diluted with water in such an amount that the amount of the active ingredient became 1 kg per hectare, and then uniformly applied to the soil surface. On the 21st day after the application, observation and evaluation were carried out according to the aforesaid criteria.

soybean (Glycine max) [7] = assay: Upland soil treatment (Test Example 2), crop; assay type: in vivo; details: soil surface treatment next day after sowing, 1 kg active ingredient per hectare, evaluated 21st day, lower index = higher safety
Excerpt: as §3

Monochoria vaginalis = assay: Paddy field treatment (Test Example 3); assay type: in vivo; details: paddy pot, submerged 4 cm, dropped on water surface 10th day after transplantation, 1 kg active ingredient per hectare, evaluated 21st day
Experimental: as §2

Ammannia multiflora = assay: Paddy field treatment (Test Example 3); assay type: in vivo; details: paddy pot, submerged 4 cm, dropped on water surface 10th day after transplantation, 1 kg active ingredient per hectare, evaluated 21st day
Experimental: as §2

Scirpus juncoides = assay: Paddy field treatment (Test Example 3); assay type: in vivo; details: paddy pot, submerged 4 cm, dropped on water surface 10th day after transplantation, 1 kg active ingredient per hectare, evaluated 21st day
Experimental: as §2

[8] = test system: wheat (Triticum aestivum); assay: Upland field foliage treatment (Test Example 1), crop; assay type: in vivo; details: foliage treatment 14th day after sowing, 1 kg active ingredient per hectare, evaluated 21st day, lower index = higher safety
Excerpt: as §1

soybean (Glycine max) [9] = assay: as above; assay type: in vivo; details: foliage treatment 14th day after sowing, 1 kg active ingredient per hectare, evaluated 21st day, lower index = higher safety
Excerpt: as §1

Echinochloa spp. = assay: Paddy field treatment (Test Example 3); assay type: in vivo, Echinochloa crusgalli; details: paddy pot, submerged 4 cm, dropped on water surface 10th day after transplantation, 1 kg active ingredient per hectare, evaluated 21st day
Experimental: as §2

Chenopodium album [10] = assay: Upland soil treatment (Test Example 2); assay type: in vivo; details: soil surface treatment next day after sowing, wettable powder, 1 kg active ingredient per hectare, evaluated 21st day after application
Excerpt: as §3

Stellaria media [11] = assay: Upland soil treatment (Test Example 2); assay type: in vivo; details: soil surface treatment next day after sowing, wettable powder, 1 kg active ingredient per hectare, evaluated 21st day after application
Excerpt: as §3

Digitaria adscendens [12] = assay: Upland soil treatment (Test Example 2); assay type: in vivo; details: soil surface treatment next day after sowing, wettable powder, 1 kg active ingredient per hectare, evaluated 21st day after application
Excerpt: as §3

Setaria viridis [13] = assay: Upland soil treatment (Test Example 2); assay type: in vivo; details: soil surface treatment next day after sowing, wettable powder, 1 kg active ingredient per hectare, evaluated 21st day after application
Excerpt: as §3

| Structure (SMILES) | Herbicidal activity Chenopodium album (Chenopodium album [1]) | Herbicidal activity Stellaria media (Stellaria media [2]) | Herbicidal activity Digitaria adscendens (Digitaria adscendens [3]) | Herbicidal activity Setaria viridis (Setaria viridis [4]) | Herbicidal activity Oryza sativa [5] | Herbicidal activity Triticum aestivum [6] | Herbicidal activity Glycine max (soybean (Glycine max) [7]) | Herbicidal activity Monochoria vaginalis (Monochoria vaginalis) | Herbicidal activity Ammannia multiflora (Ammannia multiflora) | Herbicidal activity Scirpus juncoides (Scirpus juncoides) | Herbicidal activity Triticum aestivum [8] | Herbicidal activity Glycine max (soybean (Glycine max) [9]) | Herbicidal activity Echinochloa spp. (Echinochloa spp.) | Herbicidal activity Chenopodium album (Chenopodium album [10]) | Herbicidal activity Stellaria media (Stellaria media [11]) | Herbicidal activity Digitaria adscendens (Digitaria adscendens [12]) | Herbicidal activity Setaria viridis (Setaria viridis [13]) |
| --- | --- | --- | --- | --- | --- | --- | --- | --- | --- | --- | --- | --- | --- | --- | --- | --- | --- |
| COC=C(Cn1ccc(-c2ccccc2)n1)C(=O)OC [Compound 1] | 5 (herbicidal effect of not less than 90% by weight) | 5 (herbicidal effect of not less than 90% by weight) | 5 (herbicidal effect of not less than 90% by weight) | 5 (herbicidal effect of not less than 90% by weight) | 1 (herbicidal effect of not less than 10% by weight and less than 30% by weight) | 0 (herbicidal effect of not less than 0% by weight and less than 10% by weight) | 0 (herbicidal effect of not less than 0% by weight and less than 10% by weight) | 5 (herbicidal effect of not less than 90% by weight) | 4 (herbicidal effect of not less than 70% by weight and less than 90% by weight) | 5 (herbicidal effect of not less than 90% by weight) | 1 (herbicidal effect of not less than 10% by weight and less than 30% by weight) | 1 (herbicidal effect of not less than 10% by weight and less than 30% by weight) | 5 (herbicidal effect of not less than 90% by weight) | 4 (herbicidal effect of not less than 70% by weight and less than 90% by weight) | 4 (herbicidal effect of not less than 70% by weight and less than 90% by weight) | 5 (herbicidal effect of not less than 90% by weight) | 4 (herbicidal effect of not less than 70% by weight and less than 90% by weight) |
| COC=C(Cn1nc(-c2ccccc2)cc1C)C(=O)OC [Compound 2] | 4 (herbicidal effect of not less than 70% by weight and less than 90% by weight) | 4 (herbicidal effect of not less than 70% by weight and less than 90% by weight) | 4 (herbicidal effect of not less than 70% by weight and less than 90% by weight) | 4 (herbicidal effect of not less than 70% by weight and less than 90% by weight) | 0 (herbicidal effect of not less than 0% by weight and less than 10% by weight) | 0 (herbicidal effect of not less than 0% by weight and less than 10% by weight) | 0 (herbicidal effect of not less than 0% by weight and less than 10% by weight) | 3 (herbicidal effect of not less than 50% by weight and less than 70% by weight) | 3 (herbicidal effect of not less than 50% by weight and less than 70% by weight) | 3 (herbicidal effect of not less than 50% by weight and less than 70% by weight) | 0 (herbicidal effect of not less than 0% by weight and less than 10% by weight) | 0 (herbicidal effect of not less than 0% by weight and less than 10% by weight) | 3 (herbicidal effect of not less than 50% by weight and less than 70% by weight) | 4 (herbicidal effect of not less than 70% by weight and less than 90% by weight) | 4 (herbicidal effect of not less than 70% by weight and less than 90% by weight) | 4 (herbicidal effect of not less than 70% by weight and less than 90% by weight) | 4 (herbicidal effect of not less than 70% by weight and less than 90% by weight) |
| COC=C(Cn1nc(-c2cccc(C)c2)cc1C)C(=O)OC [Compound 3] | 5 (herbicidal effect of not less than 90% by weight) | 5 (herbicidal effect of not less than 90% by weight) | 4 (herbicidal effect of not less than 70% by weight and less than 90% by weight) | 5 (herbicidal effect of not less than 90% by weight) | 0 (herbicidal effect of not less than 0% by weight and less than 10% by weight) | 0 (herbicidal effect of not less than 0% by weight and less than 10% by weight) | 0 (herbicidal effect of not less than 0% by weight and less than 10% by weight) | 4 (herbicidal effect of not less than 70% by weight and less than 90% by weight) | 4 (herbicidal effect of not less than 70% by weight and less than 90% by weight) | 3 (herbicidal effect of not less than 50% by weight and less than 70% by weight) | 0 (herbicidal effect of not less than 0% by weight and less than 10% by weight) | 0 (herbicidal effect of not less than 0% by weight and less than 10% by weight) | 3 (herbicidal effect of not less than 50% by weight and less than 70% by weight) | 4 (herbicidal effect of not less than 70% by weight and less than 90% by weight) | 4 (herbicidal effect of not less than 70% by weight and less than 90% by weight) | 4 (herbicidal effect of not less than 70% by weight and less than 90% by weight) | 4 (herbicidal effect of not less than 70% by weight and less than 90% by weight) |
| COC=C(Cn1nc(-c2cc(C)ccc2C)cc1C)C(=O)OC [Compound 5] | 5 (herbicidal effect of not less than 90% by weight) | 4 (herbicidal effect of not less than 70% by weight and less than 90% by weight) | 4 (herbicidal effect of not less than 70% by weight and less than 90% by weight) | 4 (herbicidal effect of not less than 70% by weight and less than 90% by weight) | 0 (herbicidal effect of not less than 0% by weight and less than 10% by weight) | 0 (herbicidal effect of not less than 0% by weight and less than 10% by weight) | 0 (herbicidal effect of not less than 0% by weight and less than 10% by weight) | 5 (herbicidal effect of not less than 90% by weight) | 3 (herbicidal effect of not less than 50% by weight and less than 70% by weight) | 3 (herbicidal effect of not less than 50% by weight and less than 70% by weight) | 0 (herbicidal effect of not less than 0% by weight and less than 10% by weight) | 0 (herbicidal effect of not less than 0% by weight and less than 10% by weight) | – | 4 (herbicidal effect of not less than 70% by weight and less than 90% by weight) | 4 (herbicidal effect of not less than 70% by weight and less than 90% by weight) | 5 (herbicidal effect of not less than 90% by weight) | 4 (herbicidal effect of not less than 70% by weight and less than 90% by weight) |
